Measurements reported in US10947213B1 (Merck Patent GmbH, priority 2015, dated 2021).

target: T1, TLR7/NFKb HEK cells (Homo sapiens, UniProt Q9NYK1); experiment: HEK Cell Assay (TLR7/NFKb reporter, Steady-Glo luciferase readout); format: cell-based; conditions: 30 min compound preincubation, then R*48 agonist for 5 hours, read-out: Potency
T1 construct: expressed in transfected cells; host or cells: HEK cells (TLR7/NFKb reporter line)
T1 sequence (Q9NYK1 27-1049): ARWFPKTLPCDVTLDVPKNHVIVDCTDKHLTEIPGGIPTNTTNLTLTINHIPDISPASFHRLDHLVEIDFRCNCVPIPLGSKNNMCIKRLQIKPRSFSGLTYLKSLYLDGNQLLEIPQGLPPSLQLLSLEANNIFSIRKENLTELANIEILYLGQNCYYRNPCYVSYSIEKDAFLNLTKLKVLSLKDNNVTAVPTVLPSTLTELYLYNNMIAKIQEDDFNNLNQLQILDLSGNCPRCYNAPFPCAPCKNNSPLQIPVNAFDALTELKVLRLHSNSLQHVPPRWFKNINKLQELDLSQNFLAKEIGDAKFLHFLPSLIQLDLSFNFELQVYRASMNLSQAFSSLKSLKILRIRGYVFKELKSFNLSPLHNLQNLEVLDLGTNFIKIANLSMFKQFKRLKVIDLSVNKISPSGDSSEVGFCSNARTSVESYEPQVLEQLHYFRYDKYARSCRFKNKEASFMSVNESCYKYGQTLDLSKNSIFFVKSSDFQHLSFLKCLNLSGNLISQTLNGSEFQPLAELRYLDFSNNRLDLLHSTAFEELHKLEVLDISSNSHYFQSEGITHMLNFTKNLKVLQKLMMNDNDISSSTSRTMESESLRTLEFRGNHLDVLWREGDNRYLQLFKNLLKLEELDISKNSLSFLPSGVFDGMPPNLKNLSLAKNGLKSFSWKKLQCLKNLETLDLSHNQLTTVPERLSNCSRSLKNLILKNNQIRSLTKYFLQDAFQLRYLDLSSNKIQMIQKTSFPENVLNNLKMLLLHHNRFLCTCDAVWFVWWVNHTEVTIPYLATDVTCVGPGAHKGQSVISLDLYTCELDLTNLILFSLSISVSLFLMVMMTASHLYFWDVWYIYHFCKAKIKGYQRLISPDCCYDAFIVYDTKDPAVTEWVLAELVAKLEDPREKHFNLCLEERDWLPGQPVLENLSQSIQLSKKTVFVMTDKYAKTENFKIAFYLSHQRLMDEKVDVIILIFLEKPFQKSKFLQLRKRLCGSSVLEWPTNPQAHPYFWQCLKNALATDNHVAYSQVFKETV
How it was run: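 Steady-Glo luminescence after 5 h stimulation with R*48 agonist, following 30 min compound preincubation. Assay run in HEK cells carrying a TLR7/NFKb luciferase reporter, plated at 5000 cells/well and grown 24 h at 37° C (10% CO2) before treatment.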

Structure (SMILES)	IC50
C[C@H]1C[C@@H](NC(=O)CC2CNC2)CN(c2ccc(C(F)F)c3nccnc23)C1 [Compound 324, 2-(azetidin-3-yl)-N-[(3R,5S)-1-[8-(difluoromethyl)quinoxalin-5-yl]-5-methylpiperidin-3-yl]acetamide]	1000 to 10000 nM
CC(C(=O)N[C@@H]1C[C@H](C)CN(c2ccc(C(F)F)c3nccnc23)C1)N1CCC(O)CC1 (stereo partly drawn) [Compound 325, N-[(3R,5S)-1-[8-(difluoromethyl)quinoxalin-5-yl]-5-methylpiperidin-3-yl]-2-(4-hydroxypiperidin-1-yl)propanamide]	1000 to 10000 nM
C[C@H]1C[C@@H](NC(=O)C2CC(F)(F)C2)CN(c2ccc(C(F)F)c3nccnc23)C1 [Compound 329, N-[(3R,5S)-1-[8-(difluoromethyl)quinoxalin-5-yl]-5-methylpiperidin-3-yl]-3,3-difluorocyclobutane-1-carboxamide]	1000 to 10000 nM
C[C@H]1C[C@@H](N)CN(c2c(F)cc(C#N)c3nccnc23)C1 [Compound 342, 8-[(3R,5S)-3-amino-5-methylpiperidin-1-yl]-7-fluoroquinoxaline-5-carbonitrile]	1000 to 10000 nM
C[C@H]1C[C@@H](NC(=O)CC(C)(C)C)CN(c2c(F)cc(C#N)c3nccnc23)C1 [Compound 343, N-[(3R,5S)-1-(8-cyano-6-fluoroquinoxalin-5-yl)-5-methylpiperidin-3-yl]-3,3-dimethylbutanamide]	1000 to 10000 nM
COCCN[C@@H]1C[C@H](C)CN(c2c(F)cc(C#N)c3nccnc23)C1 [Compound 344, 7-fluoro-8-[(3R,5S)-3-[(2-methoxyethyl)amino]-5-methylpiperidin-1-yl]quinoxaline-5-carbonitrile]	1000 to 10000 nM
C[C@H]1C[C@@H](NC(=O)CN(C)C)CN(c2c(F)cc(C#N)c3nccnc23)C1 [Compound 347, N-[(3R,5S)-1-(8-cyano-6-fluoroquinoxalin-5-yl)-5-methylpiperidin-3-yl]-2-(dimethylamino)acetamide]	1000 to 10000 nM

Continued, values first:

IC50	Structure (SMILES)
1000 to 10000 nM	C[C@H]1C[C@@H](NC(=O)CC2CC2(F)F)CN(c2ccc(C(F)F)c3nccnc23)C1 (stereo partly drawn) [Compound 322, 2-(2,2-difluorocyclopropyl)-N-[(3R,5S)-1-[8-(difluoromethyl)quinoxalin-5-yl]-5-methylpiperidin-3-yl]acetamide]
1000 to 10000 nM	CC(C(=O)N[C@@H]1C[C@H](C)CN(c2ccc(C(F)F)c3nccnc23)C1)N1CC(F)(F)C1 (stereo partly drawn) [Compound 323, 2-(3,3-difluoroazetidin-1-yl)-N-[(3R,5S)-1-[8-(difluoromethyl)quinoxalin-5-yl]-5-methylpiperidin-3-yl]propanamide]
< 1000 nM	C[C@H]1C[C@@H](NC(=O)CN2CCCN(C)CC2)CN(c2ccc(C(F)F)c3nccnc23)C1 [Compound 326, N-[(3R,5S)-1-[8-(difluoromethyl)quinoxalin-5-yl]-5-methylpiperidin-3-yl]-2-(4-methyl-1,4-diazepan-1-yl)acetamide]
< 1000 nM	C[C@H]1C[C@@H](NC(=O)CC(C)(C)CN)CN(c2ccc(C(F)F)c3nccnc23)C1 [Compound 327, 4-amino-N-[(3R,5S)-1-[8-(difluoromethyl)quinoxalin-5-yl]-5-methylpiperidin-3-yl]-3,3-dimethylbutanamide]
< 1000 nM	C[C@H]1C[C@@H](NC(=O)CC2CCN(C)CC2)CN(c2ccc(C(F)F)c3nccnc23)C1 [Compound 328, N-[(3R,5S)-1-[8-(difluoromethyl)quinoxalin-5-yl]-5-methylpiperidin-3-yl]-2-(1-methylpiperidin-4-yl)acetamide]
< 1000 nM	C[C@H]1C[C@@H](N)CN(c2ccc(F)c3ncccc23)C1 [Compound 341, (3R,5S)-1-(8-fluoroquinolin-5-yl)-5-methylpiperidin-3-amine]
< 1000 nM	C[C@H]1C[C@@H](NC(=O)CN2CCC(F)(F)CC2)CN(c2ccc(C#N)c3nccnc23)C1 [Compound 348, N-[(3R,5S)-1-(8-cyanoquinoxalin-5-yl)-5-methylpiperidin-3-yl]-2-(4,4-difluoropiperidin-1-yl)acetamide]
